In US11345694B2, “Antibacterial compounds” (DISCUVA LTD., priority 2017, dated 2022):
In brackets after ≈: the same amount, converted by molar mass.

How the values were obtained:
[1] = tested on: K. pneumoniae H154680676 (KP5); test: MIC broth microdilution; assay type: cell-based, Klebsiella pneumoniae; conditions: for MIC: Klebsiella pneumoniae
Summary of the method: (§1)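 Planktonic MIC determination: compound tested two-fold from 200 down to 0.39 μM final with DMSO capped at 2% final, cation-adjusted Müller-Hinton broth, 37° C for 20-24 hours. Endpoint is the lowest concentration inhibiting growth.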

[2] = tested on: K. pneumoniae NCTC 13438 (KP1); test: MIC broth microdilution; assay type: cell-based, Klebsiella pneumoniae; conditions: for MIC: Klebsiella pneumoniae, NCTC13438
Summary of the method: as §1

[3] = tested on: K. pneumoniae ATCC 700603 (KP3); test: MIC broth microdilution; assay type: cell-based, Klebsiella pneumoniae; conditions: for MIC: Klebsiella pneumoniae, ATCC700603
Summary of the method: as §1

[4] = tested on: K. pneumoniae H154600588 (KP8); test: MIC broth microdilution; assay type: cell-based, Klebsiella pneumoniae; conditions: for MIC: Klebsiella pneumoniae
Summary of the method: as §1

[5] = tested on: K. pneumoniae H154640784 (KP7); test: MIC broth microdilution; assay type: cell-based, Klebsiella pneumoniae; conditions: for MIC: Klebsiella pneumoniae
Summary of the method: as §1

[6] = tested on: K. pneumoniae H154300688 (KP9); test: MIC broth microdilution; assay type: cell-based, Klebsiella pneumoniae; conditions: for MIC: Klebsiella pneumoniae
Summary of the method: as §1

[7] = tested on: K. pneumoniae H151440671 (KP10); test: MIC broth microdilution; assay type: cell-based, Klebsiella pneumoniae; conditions: for MIC: Klebsiella pneumoniae
Summary of the method: as §1

[8] = tested on: K. pneumoniae H154020667 (KP6); test: MIC broth microdilution; assay type: cell-based, Klebsiella pneumoniae; conditions: for MIC: Klebsiella pneumoniae
Summary of the method: as §1

[9] = tested on: E. coli NCTC 13441 (UPEC); test: MIC broth microdilution; assay type: cell-based, Escherichia coli; conditions: for MIC: Escherichia coli, NCTC13441
Summary of the method: (§2)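 Following CLSI standards, susceptibility is measured in cation-adjusted Müller-Hinton broth at 37° C without added CO2 for 20-24 hours. Test concentrations run 0.39-200 μM final in doubling steps, DMSO capped at 2%. MIC: lowest concentration without bacterial growth.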

[10] = tested on: Pseudomonas aeruginosa ATCC 33359 (PA); test: MIC broth microdilution; assay type: cell-based; conditions: for MIC: ATCC33359
Summary of the method: as §2

[11] = tested on: Salmonella typhimurium XNAA5 (St); test: MIC broth microdilution; assay type: cell-based; conditions: for MIC: Salmonella enterica
Summary of the method: as §2

[12] = tested on: Staphylococcus aureus ATCC 35556 (SA); test: MIC broth microdilution; assay type: cell-based; conditions: for MIC: ATCC35556
Summary of the method: as §2

[13] = tested on: Klebsiella pneumoniae ATCC 10031 (KP2); test: MIC broth microdilution; assay type: cell-based; conditions: for MIC: ATCC10031
Summary of the method: as §1

[14] = tested on: Acinetobacter baumannii ATCC 17978 (AB); test: MIC broth microdilution; assay type: cell-based; conditions: for MIC: ATCC17978
Summary of the method: as §2

[15] = tested on: Enterobacter cloacae DSM 30054 (Ed); test: MIC broth microdilution; assay type: cell-based; conditions: for MIC: DSM30054
Summary of the method: as §1

[16] = tested on: Escherichia coli K12 (EC); test: MIC broth microdilution; assay type: cell-based
Summary of the method: as §2

[17] = tested on: Serratia marcescens SL1344 (Sm); test: MIC broth microdilution; assay type: cell-based
Summary of the method: as §2

[18] = tested on: human hepatocarcinoma cell line ATCC HB-8065 (HepG2); test: Human cell viability (CellTiter-Glo); assay type: cell-based; conditions: Homo sapiens; HepG2 cells, 24 h incubation, CellTiter-Glo luminescence, 0.2-100 μM; read-out: IC50 values against the HepG2 cell line
Summary of the method: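 Cytotoxicity was read as CellTiter-Glo luminescence after 24 h compound exposure at 37° C., 5% CO2. Final concentrations spanned 0.2-100 μM in two-fold steps, in 1% FBS MEM with 1% DMSO, on cells plated a day earlier at 20,000/well. IC50 came from 4-parameter logistic regression.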

Structure (SMILES)	MIC [1]	MIC [2]	MIC [3]	MIC [4]	MIC [5]	MIC [6]	MIC [7]	MIC [8]	MIC [9]	MIC [10]	MIC [11]	MIC [12]	MIC [13]	MIC [14]	MIC [15]	MIC [16]	MIC [17]	IC50 [18]	other results
C[C@H]1c2cccc(O)c2C(=O)C2=C(O)[C@]3(O)C(=O)C(C(N)=O)=C(O)[C@@H](N(C)C)[C@@H]3[C@@H](O)[C@@H]21 [DOX]	–	–	–	–	–	–	–	–	–	–	–	–	–	–	–	–	–	–	MIC KP5 [1]: C (a MIC of from 10 to 100 is assigned the letter C); MIC KP1 [2]: C (a MIC of from 10 to 100 is assigned the letter C); MIC KP3 [3]: C (a MIC of from 10 to 100 is assigned the letter C); MIC KP8 [4]: C (a MIC of from 10 to 100 is assigned the letter C); MIC KP7 [5]: C (a MIC of from 10 to 100 is assigned the letter C); MIC KP9 [6]: C (a MIC of from 10 to 100 is assigned the letter C); MIC KP10 [7]: B (a MIC of from 1 to 10 is assigned the letter B); MIC KP6 [8]: C (a MIC of from 10 to 100 is assigned the letter C); MIC UPEC [9]: C (a MIC of from 10 to 100 is assigned the letter C); MIC PA [10]: C (a MIC of from 10 to 100 is assigned the letter C); MIC St [11]: B (a MIC of from 1 to 10 is assigned the letter B); MIC SA [12]: A (an MIC (μM) of less or equal to 1 is assigned the letter A); MIC KP2 [13]: A (an MIC (μM) of less or equal to 1 is assigned the letter A); MIC AB [14]: A (an MIC (μM) of less or equal to 1 is assigned the letter A); MIC Ecl [15]: B (a MIC of from 1 to 10 is assigned the letter B); MIC EC [16]: B (a MIC of from 1 to 10 is assigned the letter B); MIC Sm [17]: B (a MIC of from 1 to 10 is assigned the letter B)
Cc1cc(-c2[nH]c(N)nc2-c2ccc3c(c2)CCO3)ccn1 [Example 3, 4-(2,3-Dihydrobenzofuran-5-yl)-5-(2-methylpyridin-4-yl)-1H-imidazol-2-amine]	1 to 10 µM (≈ 0.292 to 2.92 µg/mL)	1 to 10 µM (≈ 0.292 to 2.92 µg/mL)	1 to 10 µM (≈ 0.292 to 2.92 µg/mL)	1 to 10 µM (≈ 0.292 to 2.92 µg/mL)	1 to 10 µM (≈ 0.292 to 2.92 µg/mL)	1 to 10 µM (≈ 0.292 to 2.92 µg/mL)	1 to 10 µM (≈ 0.292 to 2.92 µg/mL)	1 to 10 µM (≈ 0.292 to 2.92 µg/mL)	≤ 1 µM	> 100 µM	≤ 1 µM	> 100 µM	≤ 1 µM	> 100 µM	≤ 1 µM	≤ 1 µM	1 to 10 µM (≈ 0.292 to 2.92 µg/mL)	> 100 µM	–
Nc1cc(-c2[nH]c(N)nc2-c2ccc(OCc3ccc(F)cc3)cc2)ccn1 [Example 7, 4-(2-Amino-4-(4-((4-fluorobenzyl)oxy)phenyl)-1H-imidazol-5-yl)pyridin-2-amine]	≤ 1 µM	1 to 10 µM (≈ 0.375 to 3.75 µg/mL)	1 to 10 µM (≈ 0.375 to 3.75 µg/mL)	1 to 10 µM (≈ 0.375 to 3.75 µg/mL)	1 to 10 µM (≈ 0.375 to 3.75 µg/mL)	≤ 1 µM	≤ 1 µM	≤ 1 µM	≤ 1 µM	> 100 µM	≤ 1 µM	10 to 100 µM (≈ 3.75 to 37.5 µg/mL)	≤ 1 µM	> 100 µM	≤ 1 µM	≤ 1 µM	≤ 1 µM	25 to 100 µM	–
CNc1cc(-c2[nH]c(N)nc2-c2ccc3c(c2)CCO3)ccn1 [Example 9, 4-(2-Amino-4-(2,3-dihydrobenzofuran-5-yl)-1H-imidazol-5-yl)-N-methylpyridin-2-amine]	1 to 10 µM (≈ 0.307 to 3.07 µg/mL)	1 to 10 µM (≈ 0.307 to 3.07 µg/mL)	1 to 10 µM (≈ 0.307 to 3.07 µg/mL)	1 to 10 µM (≈ 0.307 to 3.07 µg/mL)	1 to 10 µM (≈ 0.307 to 3.07 µg/mL)	1 to 10 µM (≈ 0.307 to 3.07 µg/mL)	≤ 1 µM	≤ 1 µM	≤ 1 µM	> 100 µM	≤ 1 µM	> 100 µM	≤ 1 µM	> 100 µM	≤ 1 µM	≤ 1 µM	10 to 100 µM (≈ 3.07 to 30.7 µg/mL)	> 100 µM	–
Cc1cc(-c2nc(N)[nH]c2-c2ccc(OCc3ccc(F)cc3)c(F)c2)ccn1 [Example 16, 5-(3-Fluoro-4-((4-fluorobenzyl)oxy)phenyl)-4-(2-methylpyridin-4-yl)-1H-imidazol-2-amine]	≤ 1 µM	≤ 1 µM	≤ 1 µM	≤ 1 µM	≤ 1 µM	≤ 1 µM	≤ 1 µM	≤ 1 µM	≤ 1 µM	> 100 µM	≤ 1 µM	> 100 µM	≤ 1 µM	> 100 µM	≤ 1 µM	≤ 1 µM	≤ 1 µM	25 to 100 µM	–
